Measured values reported in PMC3923778 (PLoS Currents, 2014).

Columns and labels:
PDE5 Cat = molecular target: T1, PDE5 Cat (Homo sapiens, UniProt O76074); assay: IMAP PDE activity assay (Scottish Biomedical); assay type: biochemical; settings: PDE5 Cat (catalytic domain)
T1 construct: using full length PDE5 versus the catalytic domain used in our assays; Scottish Biomedical (contract laboratory)

PDE10A1 (cAMP) = PDE10A1 (cAMP) (Homo sapiens, UniProt Q9Y233); assay: IMAP PDE activity assay (Scottish Biomedical); assay type: biochemical; settings: * Extrapolated value
Sequence of PDE10A1 (cAMP) (Q9Y233 267-1055): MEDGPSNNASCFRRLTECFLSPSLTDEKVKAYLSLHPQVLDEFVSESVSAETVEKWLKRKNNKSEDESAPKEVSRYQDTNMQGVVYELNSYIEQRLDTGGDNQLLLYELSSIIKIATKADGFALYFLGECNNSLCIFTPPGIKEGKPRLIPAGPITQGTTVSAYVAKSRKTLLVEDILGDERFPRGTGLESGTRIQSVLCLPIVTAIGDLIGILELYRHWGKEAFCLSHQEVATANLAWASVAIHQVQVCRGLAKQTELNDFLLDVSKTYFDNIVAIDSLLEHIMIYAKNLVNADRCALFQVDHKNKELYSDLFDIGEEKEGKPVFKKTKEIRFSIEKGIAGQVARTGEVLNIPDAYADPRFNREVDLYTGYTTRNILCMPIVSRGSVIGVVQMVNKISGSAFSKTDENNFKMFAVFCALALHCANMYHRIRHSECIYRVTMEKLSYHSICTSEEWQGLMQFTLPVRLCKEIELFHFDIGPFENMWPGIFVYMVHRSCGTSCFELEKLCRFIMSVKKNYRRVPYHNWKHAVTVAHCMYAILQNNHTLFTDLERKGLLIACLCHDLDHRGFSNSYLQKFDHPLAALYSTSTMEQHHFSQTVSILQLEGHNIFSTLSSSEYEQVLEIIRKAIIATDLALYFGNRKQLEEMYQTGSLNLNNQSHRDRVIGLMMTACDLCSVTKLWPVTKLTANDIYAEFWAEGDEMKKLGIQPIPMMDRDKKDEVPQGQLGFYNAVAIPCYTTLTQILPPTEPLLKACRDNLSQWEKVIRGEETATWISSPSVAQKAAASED
Description: (§1) Studies were conducted at Scottish Biomedical (Scotland, UK)
(§2) Activity against recombinant PDEs (Table 1) was evaluated using the IMAP technology, which is based on high affinity binding of phosphate by immobilized metal coordination complexes on nanoparticles. The binding reagent complexes with phosphate groups on nucleotide monophosphate generated from cyclic nucleotides (cAMP/cGMP) through PDE activity. With fluorescence polarization detection, binding causes a change in the rate of the molecular motion of the phosphate bearing molecule, and results in an increase in the fluorescence polarization value observed for the fluorescent label attached to the substrate.

PDE11A1 (cAMP) = PDE11A1 (cAMP) (Homo sapiens, UniProt Q9HCR9); assay: IMAP PDE activity assay (Scottish Biomedical); assay type: biochemical; settings: * Extrapolated value
Description: as §1, §2

PDE1A3 (cAMP) = molecular target: T2, PDE1A3 (cAMP) (Homo sapiens, UniProt P54750); assay: IMAP PDE activity assay (Scottish Biomedical); assay type: biochemical; settings: recombinant PDE1A3 (cAMP)
T2 construct: Scottish Biomedical (contract laboratory)
T2 sequence (P54750 whole entry, species assumed): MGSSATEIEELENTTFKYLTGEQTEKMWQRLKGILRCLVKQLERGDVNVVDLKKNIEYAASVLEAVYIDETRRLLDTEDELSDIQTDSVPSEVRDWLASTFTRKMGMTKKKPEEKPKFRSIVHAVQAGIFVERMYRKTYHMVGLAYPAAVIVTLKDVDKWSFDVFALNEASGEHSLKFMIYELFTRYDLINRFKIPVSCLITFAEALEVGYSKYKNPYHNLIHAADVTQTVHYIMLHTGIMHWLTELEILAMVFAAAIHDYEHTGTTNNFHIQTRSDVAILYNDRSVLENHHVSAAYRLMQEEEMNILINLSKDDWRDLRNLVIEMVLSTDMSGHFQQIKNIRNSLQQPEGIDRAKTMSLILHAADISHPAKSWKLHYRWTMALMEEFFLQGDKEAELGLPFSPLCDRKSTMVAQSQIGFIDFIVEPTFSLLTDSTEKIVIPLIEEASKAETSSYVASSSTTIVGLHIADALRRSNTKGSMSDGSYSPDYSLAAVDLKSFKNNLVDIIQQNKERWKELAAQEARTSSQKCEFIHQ
Description: as §1, §2

PDE2A3 = molecular target: T3, PDE2A3 (Homo sapiens, UniProt O00408); assay: IMAP PDE activity assay (Scottish Biomedical); assay type: biochemical; settings: recombinant PDE2A3
T3 construct: Scottish Biomedical (contract laboratory)
T3 sequence (O00408 whole entry, species assumed): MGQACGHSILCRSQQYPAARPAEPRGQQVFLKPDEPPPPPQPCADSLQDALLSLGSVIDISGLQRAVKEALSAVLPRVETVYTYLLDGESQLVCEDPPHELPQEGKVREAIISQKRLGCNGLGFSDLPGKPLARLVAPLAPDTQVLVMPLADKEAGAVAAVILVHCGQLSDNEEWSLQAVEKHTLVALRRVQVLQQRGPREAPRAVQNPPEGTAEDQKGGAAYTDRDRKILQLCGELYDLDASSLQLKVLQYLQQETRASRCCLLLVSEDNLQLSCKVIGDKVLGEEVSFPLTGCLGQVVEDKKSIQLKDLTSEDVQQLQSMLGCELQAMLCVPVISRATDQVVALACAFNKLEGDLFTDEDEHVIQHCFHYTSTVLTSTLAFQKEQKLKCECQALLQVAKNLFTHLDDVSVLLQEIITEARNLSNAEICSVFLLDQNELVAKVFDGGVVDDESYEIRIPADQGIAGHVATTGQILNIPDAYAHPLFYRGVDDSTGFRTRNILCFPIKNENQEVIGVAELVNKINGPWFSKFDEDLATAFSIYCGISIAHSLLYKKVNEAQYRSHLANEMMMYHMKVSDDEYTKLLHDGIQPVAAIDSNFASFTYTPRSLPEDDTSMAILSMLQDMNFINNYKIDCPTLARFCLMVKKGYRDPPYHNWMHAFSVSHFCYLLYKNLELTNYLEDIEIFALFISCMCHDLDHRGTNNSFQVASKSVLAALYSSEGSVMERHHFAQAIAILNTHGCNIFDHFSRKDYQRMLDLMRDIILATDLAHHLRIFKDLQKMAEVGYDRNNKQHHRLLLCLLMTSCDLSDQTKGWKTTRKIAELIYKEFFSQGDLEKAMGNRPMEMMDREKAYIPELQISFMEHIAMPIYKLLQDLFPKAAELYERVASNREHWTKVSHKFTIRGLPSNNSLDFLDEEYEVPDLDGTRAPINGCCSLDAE
Description: as §1, §2

PDE3 Cat = assay: IMAP PDE activity assay (Scottish Biomedical); assay type: biochemical; settings: * Extrapolated value
Description: as §1, §2

PDE4 Cat = assay: IMAP PDE activity assay (Scottish Biomedical); assay type: biochemical
Description: as §1, §2

PDE6AB = molecular target: T4, PDE6AB (Homo sapiens, UniProt P16499+P35913); assay: IMAP PDE activity assay (Scottish Biomedical); assay type: biochemical; settings: NI, no inhibition noted at concentrations tested (up to 10 µM at Cerep and up to 100 µM at Scottish Biomedical)
T4 construct: Scottish Biomedical (contract laboratory)
T4 sequence (P16499 whole entry): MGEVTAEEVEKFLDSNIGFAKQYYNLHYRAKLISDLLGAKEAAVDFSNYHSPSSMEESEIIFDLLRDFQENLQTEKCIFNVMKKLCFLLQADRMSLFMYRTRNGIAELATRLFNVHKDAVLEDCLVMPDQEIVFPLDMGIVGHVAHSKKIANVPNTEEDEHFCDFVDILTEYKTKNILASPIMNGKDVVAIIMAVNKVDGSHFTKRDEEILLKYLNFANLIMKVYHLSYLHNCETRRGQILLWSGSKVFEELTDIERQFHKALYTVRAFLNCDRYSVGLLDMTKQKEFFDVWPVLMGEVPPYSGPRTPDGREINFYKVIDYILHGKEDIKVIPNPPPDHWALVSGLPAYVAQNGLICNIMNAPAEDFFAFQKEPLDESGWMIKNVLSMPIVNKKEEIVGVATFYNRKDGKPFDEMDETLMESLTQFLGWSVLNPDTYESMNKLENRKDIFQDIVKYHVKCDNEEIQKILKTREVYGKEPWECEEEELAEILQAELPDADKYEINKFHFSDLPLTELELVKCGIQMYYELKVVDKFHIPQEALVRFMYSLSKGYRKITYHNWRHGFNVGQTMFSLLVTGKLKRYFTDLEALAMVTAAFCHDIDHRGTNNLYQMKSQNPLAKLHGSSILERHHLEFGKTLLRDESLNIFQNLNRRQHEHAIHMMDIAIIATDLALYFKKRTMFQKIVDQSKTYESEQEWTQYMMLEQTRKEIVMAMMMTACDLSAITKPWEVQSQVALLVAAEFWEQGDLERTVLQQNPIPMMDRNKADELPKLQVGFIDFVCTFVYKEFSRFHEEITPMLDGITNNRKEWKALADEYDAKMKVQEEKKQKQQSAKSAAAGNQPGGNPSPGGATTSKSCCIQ
T4 sequence (P35913 whole entry): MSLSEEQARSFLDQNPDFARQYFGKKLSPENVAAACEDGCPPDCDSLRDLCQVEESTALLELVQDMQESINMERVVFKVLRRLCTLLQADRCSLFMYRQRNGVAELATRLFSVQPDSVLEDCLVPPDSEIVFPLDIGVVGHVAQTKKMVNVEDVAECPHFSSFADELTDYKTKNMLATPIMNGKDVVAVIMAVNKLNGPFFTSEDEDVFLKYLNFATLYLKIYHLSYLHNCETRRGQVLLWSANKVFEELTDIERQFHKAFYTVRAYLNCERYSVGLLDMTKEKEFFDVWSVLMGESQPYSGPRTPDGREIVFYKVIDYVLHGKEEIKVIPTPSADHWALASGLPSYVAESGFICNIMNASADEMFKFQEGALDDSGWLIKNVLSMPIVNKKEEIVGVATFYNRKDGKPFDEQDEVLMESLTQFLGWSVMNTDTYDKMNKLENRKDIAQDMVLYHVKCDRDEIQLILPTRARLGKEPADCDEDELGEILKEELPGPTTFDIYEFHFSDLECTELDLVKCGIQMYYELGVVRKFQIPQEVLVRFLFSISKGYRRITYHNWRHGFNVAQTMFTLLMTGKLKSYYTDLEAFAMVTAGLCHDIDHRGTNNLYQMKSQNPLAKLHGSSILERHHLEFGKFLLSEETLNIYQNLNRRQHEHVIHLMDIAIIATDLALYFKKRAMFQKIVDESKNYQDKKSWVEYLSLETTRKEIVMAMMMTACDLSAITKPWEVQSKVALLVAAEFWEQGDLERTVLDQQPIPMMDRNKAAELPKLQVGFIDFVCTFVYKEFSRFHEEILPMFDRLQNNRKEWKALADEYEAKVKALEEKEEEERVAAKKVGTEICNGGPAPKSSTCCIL
Description: as §1, §2

PDE7A1 = molecular target: T5, PDE7A1 (Homo sapiens, UniProt Q13946); assay: IMAP PDE activity assay (Scottish Biomedical); assay type: biochemical
T5 construct: Scottish Biomedical (contract laboratory)
T5 sequence (Q13946 whole entry, species assumed): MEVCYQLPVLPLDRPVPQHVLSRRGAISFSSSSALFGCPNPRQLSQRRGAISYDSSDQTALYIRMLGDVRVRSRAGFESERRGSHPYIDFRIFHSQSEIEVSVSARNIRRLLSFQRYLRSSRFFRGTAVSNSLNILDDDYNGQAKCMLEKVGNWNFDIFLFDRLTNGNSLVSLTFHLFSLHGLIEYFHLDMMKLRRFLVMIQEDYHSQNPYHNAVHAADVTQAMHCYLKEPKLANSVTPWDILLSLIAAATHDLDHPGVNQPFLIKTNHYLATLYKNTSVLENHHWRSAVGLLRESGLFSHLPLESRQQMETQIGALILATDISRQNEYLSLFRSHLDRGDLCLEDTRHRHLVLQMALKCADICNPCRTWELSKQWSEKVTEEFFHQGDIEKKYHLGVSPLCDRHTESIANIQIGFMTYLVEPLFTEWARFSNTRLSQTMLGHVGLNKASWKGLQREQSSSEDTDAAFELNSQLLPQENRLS
Description: as §1, §2

PDE8A1 = molecular target: T6, PDE8A1 (Homo sapiens, UniProt O60658); assay: IMAP PDE activity assay (Scottish Biomedical); assay type: biochemical; settings: NI, no inhibition noted at concentrations tested (up to 10 µM at Cerep and up to 100 µM at Scottish Biomedical)
T6 construct: Scottish Biomedical (contract laboratory)
Description: as §1, §2

PDE9A2 = PDE9A2 (Homo sapiens, UniProt O76083); assay: IMAP PDE activity assay (Scottish Biomedical); assay type: biochemical; settings: * Extrapolated value
Sequence of PDE9A2 (O76083 whole entry): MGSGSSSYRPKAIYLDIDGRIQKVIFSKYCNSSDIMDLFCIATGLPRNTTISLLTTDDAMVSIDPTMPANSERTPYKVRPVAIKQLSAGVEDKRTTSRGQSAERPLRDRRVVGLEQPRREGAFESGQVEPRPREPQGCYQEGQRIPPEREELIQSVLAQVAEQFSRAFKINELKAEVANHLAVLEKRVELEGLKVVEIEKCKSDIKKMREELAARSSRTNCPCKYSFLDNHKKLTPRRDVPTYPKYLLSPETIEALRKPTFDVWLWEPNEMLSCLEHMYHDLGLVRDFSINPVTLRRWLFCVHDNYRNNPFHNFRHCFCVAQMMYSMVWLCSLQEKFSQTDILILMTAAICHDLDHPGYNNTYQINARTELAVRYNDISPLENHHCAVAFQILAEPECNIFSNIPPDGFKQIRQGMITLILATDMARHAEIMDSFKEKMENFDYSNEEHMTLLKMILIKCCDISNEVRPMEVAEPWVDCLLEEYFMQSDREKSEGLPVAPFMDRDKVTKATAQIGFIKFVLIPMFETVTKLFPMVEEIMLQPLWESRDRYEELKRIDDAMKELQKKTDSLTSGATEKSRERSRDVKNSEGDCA
Description: as §1, §2

R6/2 mice [1] = assay: Rotarod; assay type: in vivo, mouse; settings: BID, ANOVA
Description: (§3) Motor function testing including open field and rear climbing tests were commenced at 4 weeks of age and continued at weeks 6, 8 and 12, for grip strength test at age weeks 4 and 12 and for rotarod at age weeks 4, 6 and 8. Compound treatment was started at 4 weeks of age after the baseline behavioral tests.
Mice were tested at age weeks 4, 6 and 8 over 3 consecutive days (Wed, Thu, Fri). Each daily session included a training trial of 5 min at 4 RPM on the rotarod apparatus (AccuScan Instruments, Columbus, USA). One hour later, the animals were tested for 3 consecutive accelerating trials of 6 min with the speed changing from 0 to 40 RPM over 360 seconds and an inter-trial interval at least 30 min. The latency to fall from the rod was recorded. Mice remaining on the rod for more than 360 s were removed and their time scored as 360 sec.
(§4) All values are presented as mean ± Standard Error of Mean (SEM), and differences are considered to be statistically significant at the p < 0.05 level. Statistical analysis was performed using StatsDirect statistical software. Differences between group means were analyzed by 1-way-ANOVA followed by Dunnett’s test (comparison to the control (=vehicle treated TG mice) group). The acquisition of the Cued two-choice swim test was analyzed using Fisher’s exact test.

R6/2 mice [2] = assay: Open Field Test; assay type: in vivo, mouse; design: key to Open Field Total Distance: direction of significant change vs Vehicle-treated R6/2 mice / Open Field Center Distance: direction of significant change vs Vehicle-treated R6/2 mice: ▲: significant enhancement compared to Vehicle-treated R6/2 mice (One-way ANOVA, Dunnett’s post-hoc); ▼: significant impairment compared to Vehicle-treated R6/2 mice (One-way ANOVA, Dunnett’s post-hoc)
Description: as §3
Open field test was performed at age weeks 4, 6, 8 and 12. The mice were tested on Mondays at approximately 10-30 lux of red light. The mice were brought to the experimental room for at least 1 h acclimation to the experimental room conditions prior to testing. Activity chambers (Med Associates Inc., St Albans, VT; 27 x 27 x 20.3 cm) are equipped with IR beams. Mice were placed in the center of the chamber and their behavior was recorded for 30 min in 5-minute bins. Quantitative analysis was performed on the following five dependent measures: total locomotion, locomotion in the center of the open field, rearing rate in the center, total rearing frequency and velocity.
as §4

[3] = design: method as in PMID 8961086; settings: rats; ref [27]; read-out: plasma Cmax exposure; cited from earlier work
[4] = Age Week 4, 10 mg/kg p.o., BID, ANOVA
[5] = Age Week 4, 30 mg/kg p.o., BID, ANOVA
[6] = Age Week 6, 10 mg/kg p.o., BID, ANOVA
[7] = Age Week 6, 30 mg/kg p.o., BID, ANOVA
[8] = Age Week 8, 10 mg/kg p.o., BID, ANOVA
[9] = Age Week 8, 30 mg/kg p.o., BID, ANOVA
[10] = Age Week 12, 10 mg/kg p.o., BID
[11] = Age Week 12, 10 mg/kg p.o., BID, ANOVA
[12] = Age Week 12, 30 mg/kg p.o., BID
[13] = Age Week 12, 30 mg/kg p.o., BID, ANOVA

CN1C(=O)c2nc(Cc3ccc(C(F)(F)F)cc3)[nH]c2N2C1=N[C@H]1CCC[C@H]12 [SCH-51866, (+)-cis-5,6a,7,8,9,9a-hexahydro-2-[4-[trifluro-methyl]phenylmethyl]-5-methyl-cylopent[4,5]imidazo [2,1-b]purin-4(3H)one]
IC50 (PDE5 Cat): 2.84 µM
IC50 (PDE10A1 (cAMP)): 16 µM
IC50 (PDE11A1 (cAMP)): 21.9 µM
IC50 (PDE1A3 (cAMP)): 0.07 µM
IC50 (PDE2A3): 1.32 µM
IC50 (PDE3 Cat): 17.3 µM
IC50 (PDE4 Cat): > 100 µM
IC50 (PDE6AB): > 100 µM
IC50 (PDE7A1): > 100 µM
IC50 (PDE8A1): > 100 µM
IC50 (PDE9A2): 51.3 µM
Rotarod: p vs Vehicle-treated R6/2 mice (R6/2 mice [1]; Age Week 4, 10 mg/kg p.o.): ANOVA: p=0.458
Rotarod: p vs Vehicle-treated R6/2 mice (R6/2 mice [1]; Age Week 4, 30 mg/kg p.o.): ANOVA: p=0.458
Rotarod: p vs Vehicle-treated R6/2 mice (R6/2 mice [1]; Age Week 6, 10 mg/kg p.o.): ANOVA: p=0.262
Rotarod: p vs Vehicle-treated R6/2 mice (R6/2 mice [1]; Age Week 6, 30 mg/kg p.o.): ANOVA: p=0.262
Rotarod: p vs Vehicle-treated R6/2 mice (R6/2 mice [1]; Age Week 8, 10 mg/kg p.o.): ANOVA: p=0.171
Rotarod: p vs Vehicle-treated R6/2 mice (R6/2 mice [1]; Age Week 8, 30 mg/kg p.o.): ANOVA: p=0.171
Open Field Average Velocity: p vs Vehicle-treated R6/2 mice (R6/2 mice [2]; [4]): ANOVA: p=0.461
Open Field Center Distance: p vs Vehicle-treated R6/2 mice (R6/2 mice [2]; [4]): ANOVA: p=0.701
Open Field Rearing Rate in Center: p vs Vehicle-treated R6/2 mice (R6/2 mice [2]; [4]): ANOVA: p=0.341
Open Field Total Distance: p vs Vehicle-treated R6/2 mice (R6/2 mice [2]; [4]): ANOVA: p=0.792
Open Field Total Rearing Frequency: p vs Vehicle-treated R6/2 mice (R6/2 mice [2]; [4]): ANOVA: p=0.542
Open Field Average Velocity: p vs Vehicle-treated R6/2 mice (R6/2 mice [2]; [5]): ANOVA: p=0.461
Open Field Center Distance: p vs Vehicle-treated R6/2 mice (R6/2 mice [2]; [5]): ANOVA: p=0.701
Open Field Rearing Rate in Center: p vs Vehicle-treated R6/2 mice (R6/2 mice [2]; [5]): ANOVA: p=0.341
Open Field Total Distance: p vs Vehicle-treated R6/2 mice (R6/2 mice [2]; [5]): ANOVA: p=0.792
Open Field Total Rearing Frequency: p vs Vehicle-treated R6/2 mice (R6/2 mice [2]; [5]): ANOVA: p=0.542
Open Field Average Velocity: p vs Vehicle-treated R6/2 mice (R6/2 mice [2]; [6]): ANOVA: p=0.686
Open Field Center Distance: p vs Vehicle-treated R6/2 mice (R6/2 mice [2]; [6]): ANOVA: p=0.305
Open Field Rearing Rate in Center: p vs Vehicle-treated R6/2 mice (R6/2 mice [2]; [6]): ANOVA: p=0.594
Open Field Total Distance: p vs Vehicle-treated R6/2 mice (R6/2 mice [2]; [6]): ANOVA: p=0.101
Open Field Total Rearing Frequency: p vs Vehicle-treated R6/2 mice (R6/2 mice [2]; [6]): ANOVA: p=0.639
Open Field Average Velocity: p vs Vehicle-treated R6/2 mice (R6/2 mice [2]; [7]): ANOVA: p=0.686
Open Field Center Distance: p vs Vehicle-treated R6/2 mice (R6/2 mice [2]; [7]): ANOVA: p=0.305
Open Field Rearing Rate in Center: p vs Vehicle-treated R6/2 mice (R6/2 mice [2]; [7]): ANOVA: p=0.594
Open Field Total Distance: p vs Vehicle-treated R6/2 mice (R6/2 mice [2]; [7]): ANOVA: p=0.101
Open Field Total Rearing Frequency: p vs Vehicle-treated R6/2 mice (R6/2 mice [2]; [7]): ANOVA: p=0.639
Open Field Average Velocity: p vs Vehicle-treated R6/2 mice (R6/2 mice [2]; [8]): ANOVA: p=0.138
Open Field Center Distance: p vs Vehicle-treated R6/2 mice (R6/2 mice [2]; [8]): ANOVA: p=0.693
Open Field Rearing Rate in Center: p vs Vehicle-treated R6/2 mice (R6/2 mice [2]; [8]): ANOVA: p=0.519
Open Field Total Distance: p vs Vehicle-treated R6/2 mice (R6/2 mice [2]; [8]): ANOVA: p=0.333
Open Field Total Rearing Frequency: p vs Vehicle-treated R6/2 mice (R6/2 mice [2]; [8]): ANOVA: p=0.395
Open Field Average Velocity: p vs Vehicle-treated R6/2 mice (R6/2 mice [2]; [9]): ANOVA: p=0.138
Open Field Center Distance: p vs Vehicle-treated R6/2 mice (R6/2 mice [2]; [9]): ANOVA: p=0.693
Open Field Rearing Rate in Center: p vs Vehicle-treated R6/2 mice (R6/2 mice [2]; [9]): ANOVA: p=0.519
Open Field Total Distance: p vs Vehicle-treated R6/2 mice (R6/2 mice [2]; [9]): ANOVA: p=0.333
Open Field Total Rearing Frequency: p vs Vehicle-treated R6/2 mice (R6/2 mice [2]; [9]): ANOVA: p=0.395
Open Field Center Distance: p vs Vehicle-treated R6/2 mice (R6/2 mice [2]; [10]): p=0.112
Open Field Total Distance: p vs Vehicle-treated R6/2 mice (R6/2 mice [2]; [10]): p=0.454
Open Field Average Velocity: p vs Vehicle-treated R6/2 mice (R6/2 mice [2]; [11]): ANOVA: p=0.197
Open Field Rearing Rate in Center: p vs Vehicle-treated R6/2 mice (R6/2 mice [2]; [11]): ANOVA: p=0.423
Open Field Total Rearing Frequency: p vs Vehicle-treated R6/2 mice (R6/2 mice [2]; [11]): ANOVA: p=0.703
Open Field Center Distance: direction of significant change vs Vehicle-treated R6/2 mice (R6/2 mice [2]; [12]): ▼
Open Field Center Distance: p vs Vehicle-treated R6/2 mice (R6/2 mice [2]; [12]): 0.012
Open Field Total Distance: direction of significant change vs Vehicle-treated R6/2 mice (R6/2 mice [2]; [12]): ▼
Open Field Total Distance: p vs Vehicle-treated R6/2 mice (R6/2 mice [2]; [12]): 0.016
Open Field Average Velocity: p vs Vehicle-treated R6/2 mice (R6/2 mice [2]; [13]): ANOVA: p=0.197
Open Field Rearing Rate in Center: p vs Vehicle-treated R6/2 mice (R6/2 mice [2]; [13]): ANOVA: p=0.423
Open Field Total Rearing Frequency: p vs Vehicle-treated R6/2 mice (R6/2 mice [2]; [13]): ANOVA: p=0.703
Open field total distance traveled, distance in center, total rear frequency, average velocity, effect in words (R6/2 mice [2]; chronic administration in R6/2 mice): no improvement
performance in open field evaluation, effect in words (R6/2 mice [2]; highest dose group, 12 weeks of age): modest but significant worsening of performance
Cmax [3]: 2.37 to 3.8 µM
